# Source: patent US11247994B2, “6-dithio-substituted-2′-deoxyguanosine compound, preparation method thereof and use thereof” (ZHEJIANG UNIVERSITY, priority 2018, dated 2022)
# Like-named read-outs stand apart in the source and are kept apart here.
# How the values were obtained:
# [1] = target: T1, TrxR/Trx-1 (Homo sapiens, UniProt P10599); assay: Ellman test, inhibition of TrxR/Trx-1 activity; type: biochemical
# T1 sequence (P10599 2-105 limits assumed): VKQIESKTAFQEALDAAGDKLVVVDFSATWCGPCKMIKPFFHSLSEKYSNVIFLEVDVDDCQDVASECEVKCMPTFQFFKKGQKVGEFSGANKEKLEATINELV
# Text: Ellman Test—Inhibitory Effect of 6-dithio-substituted-2′-deoxyguanosine Derivative Analogues on TrxR/Trx-1 Activity
# A TrxR/TR experiment based on the Ellman reaction was used to determine the inhibitory activity of candidate compounds. Ellman reaction is that 5,5′-dithiobis (2-nitrobenzoic acid) (DTNB) reacts with sulfhydryl (—SH) to form a yellow substance with absorption at 412 nm. The increase of absorption can be equivalent to the decrease of NADPH mediated by TrxR, thus further judging the activity of TrxR/Trx-1. All experiments were carried out on 96-well plates. Before the start of the enzyme reaction, five groups of corresponding test compound stock solutions with different concentrations were prepared. In the TrxR/Trx-1 reaction, a total volume per well was 60 μL, including 100 mM HEPES, 5 mM EDTA (HE buffer, pH 7.5), 1 mM NADPH, 1.0 μM TrxR, 0.8 μM Trx-1, 2.5 mg/mL bovine insulin and the required concentration of compounds to be tested. No compound to be tested was added to the control group. No compound to be tested, TrxR and Trx-1 were added in the blank group. The plate was shaken on an oscillator for 30 seconds to fully mix the reactants. After incubation at 37° C. for 30 min, 100 μL of the prepared mixture containing 6 M guanidine hydrochloride, 50 mm Tris and 10 mm DTNB was added to terminate the reaction. After 15 minutes of incubation, the absorbance was measured at 412 nm. Finally, TrxR/Trx-1 activity %=(Atest−Akb)/(Acontrol−Akb), that is, the relative percentage of TrxR/Trx-1 activity was the activity inhibited by adding 2′-deoxyguanosine derivatives relative to the activity without 2′-deoxyguanosine derivatives. The data were fitted into a concentration response curve with a variable slope, and the IC50 value was calculated from the curve.
# [2] = system: NCM460; assay: MTT assay, cell growth inhibition, NCM460; type: cell-based; conditions: Homo sapiens, 48 hours, read-out: Tumor cell growth inhibition IC50, NCM460
# Text: (§1) MTT Assay—Inhibitory Effect of 6-dithio-substituted-2′-deoxyguanosine Derivatives on Tumor Cell Growth
# (§2) We measured the tumor cell growth inhibitory activity of candidate compounds by MTT assay. Human tumor cells in logarithmic growth phase were digested with 0.25% pancreatin for a certain time, centrifuged, re-suspended and counted with a blood cell counting plate to prepare a cell suspension, and the cell suspension was adjusted to 1.0×10^4-1×10^5 cells/mL. The cell suspension was inoculated into a 96-well culture plate, 100 μL per well, and cultured in an incubator with saturated humidity, 37° C. and 5% CO2 for 24 hours until the cells completely adhered to the wall. The test compound was diluted to the required concentration with a complete medium, the complete medium of the 96-well culture plate inoculated with human tumor cells was sucked out, a medicament-containing medium was added, 100 μL per well, the final concentration of DMSO was less than 0.1%, and the culture plate was put in an incubator for 48 hours. 10 μl of MTT was added to each well of the 96-well plate, and the culture was continued for 4 h. The culture was stopped and the culture solution in the well was carefully sucked off. 150 μL DMSO was added to each well, and shaken at a low speed for 10 min on a shaking table, so that the crystal was fully dissolved. The absorbance of each well was measured at OD 570 nm of an enzyme-linked immunosorbent assay instrument. At the same time, zeroing wells (the culture medium, MTT, dimethyl sulfoxide) and control wells (cells, a drug dissolution medium with the same concentration, a culture solution, MTT, dimethyl sulfoxide) were set up, and the cell growth inhibitory activity was calculated with the corresponding solvents as the control. 3-6 multiple wells in each group were set up with repetition of several times. Cell viability of control=(Adrug group−Azeroing well)/(Acontrol well−Azeroing well)*100%. Drawing was drawn, the data were fitted into a concentration response curve with a variable slope, and IC50 value was calculated from the curve.
# [3] = system: human colon cancer cells HCT116; assay: MTT assay, tumor cell growth inhibition, HCT116; type: cell-based; conditions: HCT-116, 48 hours
# Text: as §1, §2
# [4] = system: human colon cancer cells SW620; assay: MTT assay, tumor cell growth inhibition, SW620; type: cell-based; conditions: SW-620, 48 hours
# Text: as §1, §2
# [5] = system: human colon cancer cells HT29; assay: MTT assay, tumor cell growth inhibition, HT29; type: cell-based; conditions: HT-29, 48 hours
# Text: as §1, §2
# [6] = system: human melanoma cells A375; assay: MTT assay, tumor cell growth inhibition, A375; type: cell-based; conditions: A-375, 48 hours
# Text: as §1, §2
# [7] = system: human gastric cancer cells BGC; assay: MTT assay, tumor cell growth inhibition, BGC; type: cell-based; conditions: 48 hours
# Text: as §1, §2
# [8] = system: human leukemia cells K562; assay: MTT assay, tumor cell growth inhibition, K562; type: cell-based; conditions: 48 hours
# Text: as §1, §2
# [9] = system: human liver cancer cells HepG2; assay: MTT assay, tumor cell growth inhibition, HepG2; type: cell-based; conditions: 48 hours
# Text: as §1, §2
# [10] = system: human non-small cell lung cancer A549; assay: MTT assay, tumor cell growth inhibition, A549; type: cell-based; conditions: 48 hours
# Text: as §1, §2
# [11] = system: human breast cancer cells Bcap37; assay: MTT assay, tumor cell growth inhibition, Bcap37; type: cell-based; conditions: 48 hours
# Text: as §1, §2
# [12] = system: human colon cancer cell line HCT116 subcutaneous transplanted tumor; assay: Tumor-bearing test in nude mice, HCT116 subcutaneous transplanted tumor (tumor volume, TUNEL); type: in vivo; conditions: HCT116 model; for Extent of apoptosis in tumor tissue (TUNEL staining, rank order): frozen tumor sections, DAPI and TUNEL, G group = blank; for Inhibitory effect on the growth of subcutaneous transplanted tumor tissue in nude mice (rank order, from slope of tumor volume) / Ability to inhibit the growth of transplanted tumor tissue compared with positive controls: tail vein once every two days for 24 days; for Inhibitory effect on the growth of subcutaneous transplanted tumor tissue in nude mice (rank order, from slope of tumor volume): compound A 2 mg/kg first 8 times, 10 mg/kg last 4 times, others equimolar, KB = blank; for Ability to inhibit the growth of transplanted tumor tissue compared with positive controls: equimolar doses
# Text: Tumor-Bearing Test in Nude Mice—Inhibitory Effect of 6-Dithio-Substituted-2′-Deoxyguanosine Derivatives on the Growth of Subcutaneous Transplanted Tumor Tissue in Nude Mice
# 1) Tumor-Bearing Mouse Model of Human Colon Cancer Cell Line HCT116
# (§3) We took human colon cancer cell line HCT116 as the research object, and established a subcutaneous transplanted tumor model of human colon cancer in 32 immunodeficient nude mice. The 24th generation HCT116 cells in logarithmic growth phase were digested with pancreatin to prepare a single-cell suspension, and 1×10^7 cells were inoculated subcutaneously in the right armpit of male nude mice about 5 weeks old. After inoculation, cyclophosphamide (100 mg/kg) was injected intraperitoneally for two consecutive days. […] On the 20th day after colon cancer cell HCT116 was implanted subcutaneously, nude mice were divided into 7 groups by a random number table method, including a test drug group, a positive control group and a blank control group. Specifically, group A: the compound A was administrated; Group B: the compound B was administrated; Group C: the compound C was administrated; Group D: the compound D was administrated; Group E: the compound 6-thio-DG was administrated; Group F: the compound PX-12 was administrated; Group G: blank group, without administration of any compound. Except group C with 3 rats and group G with 4 rats, all other 5 groups had 5 rats, they mice were labeled and injected by tail vein once every two days for 24 days, 12 times, with the dose of compound A being 2 mg/kg for the first 8 times and 10 mg/kg for the last 4 times, and the dosages of other drugs being the same molar weights. The tumor volume was calculated by taking the length of the tumor as the longest diameter and the width as the corresponding vertical diameter, and the tumor volume V=(length×width^2) mm^3/2. 48 hours after the last treatment, blood was taken from the eyes, and then the animals were killed. Blood was centrifuged to get the supernatant, and then blood biochemical analysis was performed. Paraffin embedded sections of fixed tissues were stained with HE. The tumor mass in a frozen tissue was sectioned in a frozen state, and then stained by DAPI and TUNEL to judge the apoptosis of the tumor tissue in nude mice.
# [13] = Blood biochemical analysis and HE staining of tissues in HCT116 tumor-bearing nude mice; type: in vivo; conditions: tail vein once every two days, 12 times, blood 48 hours after the last treatment
# Procedure: as §3
# [14] = system: human breast cancer cells MCF7; assay: MTT assay, tumor cell growth inhibition, MCF7; type: cell-based; conditions: 48 hours
# Text: as §1, §2
Structure (SMILES),IC50 [2] [µM],IC50 [3] [µM],IC50 [4] [µM],IC50 [5] [µM],IC50 [6] [µM],IC50 [8] [µM],IC50 [9] [µM],IC50 [10] [µM],IC50 [11] [µM],"Extent of apoptosis in tumor tissue (TUNEL staining, rank order) [12]","Inhibitory effect on the growth of subcutaneous transplanted tumor tissue in nude mice (rank order, from slope of tumor volume) [12]",Ability to inhibit the growth of transplanted tumor tissue compared with positive controls [12],Alanine aminotransferase [13] [U/L],Albumin [13] [g/L],Alkaline phosphatase [13] [U/L],Aspartate aminotransferase [13] [U/L],BUN [13] [mmol/L],Chloride ion [13] [mmol/L],Creatine kinase [13] [U/L],Creatinine [13] [µmol/L],further results
"CCC(C)SSc1nc(N)nc2c1ncn2C1C[C@H](O)[C@@H](CO)O1 (stereo partly shown) [Compound A, 6-(sec-butyldithio)-2′-deoxyguanosine]",> 1000,1.27,0.21,4.55,0.6,9.88,10 to 50,30.8,18.2,D group>A group≈B group≈E group (6-thio-dG group)>C group>F group (PX-12 group)>G group (KB group),D>B≈A≈6-thio-dG>PX-12>C>KB,close to that of the positive control 6-thio-dG and stronger than that of the positive control PX-12,33.3,24.8,36.0,153.4,10.7,113.8,1896,-0.80,"IC50 ([1]; Ellman reaction, 37° C. 30 min, absorbance 412 nm, read-out: IC50, inhibition of TrxR/Trx-1 activity): 31.7 µM; IC50 [7]: 6.09 µM; Glucose [13]: 2.21 mmol/L; Potassium ion [13]: 7.56 mmol/L; Sodium ion [13]: 155.6 mmol/L; Total bilirubin [13]: 0.40 µmol/L; Total cholesterol [13]: 2.99 mmol/L; Total protein [13]: 52.6 g/L; Triglyceride [13]: 0.84 mmol/L"
"Nc1nc(SSCc2ccc(F)cc2)c2ncn(C3C[C@H](O)[C@@H](CO)O3)c2n1 (stereo partly shown) [B, 6-(p-fluorobenzyldithio)-2′-deoxyguanosine]",> 1000,2.66,1.71,3.02,0.52,10.1,< 10,13.5,21,D group>A group≈B group≈E group (6-thio-dG group)>C group>F group (PX-12 group)>G group (KB group),D>B≈A≈6-thio-dG>PX-12>C>KB,close to that of the positive control 6-thio-dG and stronger than that of the positive control PX-12,105.9,26.3,31.0,254.4,14.8,124.0,2169,8.67,IC50 ([1]; read-out: TrxR/Trx-1 IC50): 9.78 µM; IC50 [14]: 15.6 µM; Glucose [13]: 2.29 mmol/L; Potassium ion [13]: 6.26 mmol/L; Sodium ion [13]: 158.0 mmol/L; Total bilirubin [13]: 0.90 µmol/L; Total cholesterol [13]: 2.76 mmol/L; Total protein [13]: 50.7 g/L; Triglyceride [13]: 0.52 mmol/L
